Measured values published in patent publication US6468981B1, “Compositions and methods for targeting pharmaceutically active materials to cells containing androgen receptors” (Emory University, priority 1994, dated 2002).

Assays:
[1] = target: androgen receptor of LNCaP prostate tumor cells (Homo sapiens, UniProt P10275, T878A); settings: cited from earlier work
LNCaP cells = experiment: Expression of pCMV-beta (lacZ) DNA in LNCaP cells, X-gal blue staining, number of blue cells per culture plate; format: cell-based, human; settings: DHT-poly-L-lysine alone, no DNA; 48 hours incubation
Procedure: DHT poly-L-lysine as described in Example 1 was dialyzed against tris-EDTA buffer pH=7 (“HMW-D”) or purified by gel filtration column chromatography (“HMW-2=fraction #2 of the column, HMW-9=fraction 9 of the column). Protein concentrations of reaction products and column fractions were determined by the coomassie blue method. DHT-poly-L-lysine at amounts from 0.05 micrograms to 12.5 micrograms were mixed with pCMV-beta DNA expression construct containing the lacZ gene driven by the CMV immediate early promoter/enhancer in a pVC19 backbone, in amounts from 3 to 50 micrograms in 100 microliters of water at room temperature for one hour with vortex mixing every 15 minutes.
The reaction products of Example 2 were added to 1-3 ml of tissue culture media supplemented with 10% fetal bovine serum and filtered through 0.2 micron filter and added to subconfluent cultures of LNCaP cells growing on glass slides. Cells were incubated at 37 degrees C. 5% CO2 for 48 hours. Next, adherent cells were washed with phosphate buffered saline (PBS) and fixed with 2% paraformaldelyde in 0.1 M NaPO4 buffer pH=7.4 for 45 min. to one hour. Fixative was aspirated and cells rinsed with PBS and X-gal stain was applied. […] Each culture plate was scored for the number of cells which turned blue.

androgen receptor of LNCaP prostate tumor cells, sequence (P10275 whole entry T878A): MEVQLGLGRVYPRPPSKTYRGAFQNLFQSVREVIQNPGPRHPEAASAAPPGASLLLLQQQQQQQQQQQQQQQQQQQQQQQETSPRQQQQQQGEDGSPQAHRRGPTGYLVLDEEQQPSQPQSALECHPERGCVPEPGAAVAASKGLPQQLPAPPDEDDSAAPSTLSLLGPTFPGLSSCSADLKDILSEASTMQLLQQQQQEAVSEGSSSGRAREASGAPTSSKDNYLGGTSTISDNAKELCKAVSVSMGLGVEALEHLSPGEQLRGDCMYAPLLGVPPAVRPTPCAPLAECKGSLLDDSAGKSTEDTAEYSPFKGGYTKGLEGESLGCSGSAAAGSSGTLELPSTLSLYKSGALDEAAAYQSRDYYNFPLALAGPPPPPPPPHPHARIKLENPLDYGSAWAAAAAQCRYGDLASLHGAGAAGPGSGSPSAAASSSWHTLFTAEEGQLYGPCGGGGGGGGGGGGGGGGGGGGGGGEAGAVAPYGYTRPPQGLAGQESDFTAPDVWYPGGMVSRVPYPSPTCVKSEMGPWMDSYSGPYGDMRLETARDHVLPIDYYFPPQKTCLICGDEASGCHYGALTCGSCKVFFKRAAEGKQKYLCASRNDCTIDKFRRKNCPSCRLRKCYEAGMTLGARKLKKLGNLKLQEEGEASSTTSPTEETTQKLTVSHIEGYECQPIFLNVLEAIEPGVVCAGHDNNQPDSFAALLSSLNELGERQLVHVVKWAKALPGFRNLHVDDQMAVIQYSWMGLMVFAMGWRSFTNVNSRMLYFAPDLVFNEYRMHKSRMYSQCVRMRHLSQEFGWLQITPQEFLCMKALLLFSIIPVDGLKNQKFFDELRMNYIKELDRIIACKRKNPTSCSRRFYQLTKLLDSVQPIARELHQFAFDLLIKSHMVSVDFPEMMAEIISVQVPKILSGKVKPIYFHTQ

Row | Compound | Relative binding affinities for the androgen receptor [1] | positive (blue-stained) cells (LNCaP cells)
1 | C[C@]1(O)CC[C@H]2[C@@H]3CCC4=CC(=O)CCC4=C3C=C[C@@]21C [R1881, 17β-hydroxy-17α-methyl-estra-4,9,11-trien-3-one] | 100 | –
2 | DHT-poly-L-lysine HBr | – | no positive cells
